{"source": "patent US20250114337A1", "about": "“METHODS FOR VASCULAR REGENERATION AND WOUND TREATMENT” (THE METHODIST HOSPITAL, priority 2022, published 2025)", "system": "ischemic hindlimb model", "assay": "ischemic hindlimb model in fibroblast lineage tracing Fsp1-Cre: R26R-EYFP mice", "assay_type": "in vivo, mouse", "conditions": "7 days post-surgery", "procedure": "Using established transdifferentiation protocol and metabolomics profiling to assess the global metabolic changes during transdifferentiation. […] To determine the role of this metabolite in transdifferentiation, the effect of Thiamet G was assessed, an inhibitor of OGA, which enhances O-GlcNAcylation. Thiamet G increased transdifferentiation efficiency in vitro. In a fibroblast lineage tracing mice, Fsp1-Cre: R26R-EYFP mice, Thiamet G increased tissue O-glycnacylation, increased capillary density and limb perfusion, and increased the number of fibroblasts transdifferentiating into endothelial cells (i.e. FSP+CD31+ cell) in an ischemic hindlimb model.\nAngiogenic transdifferentiation in limb ischemia. A fibroblast lineage tracing mouse model (Fsp1-Cre: R26R-EYFP) was used to detect transdifferentiation in vivo in a murine model of limb ischemia (Meng, S., et al., Circulation, 2020. 142 (17): p. 1647-1662). […] This population is abolished when the mice are treated with anti-inflammatory drugs, such as dexamethasone. Intriguingly, the disappearance of these cells is associated with a reduction in perfusion recovery and worsening clinical scores. Similar results are achieved when inflammatory signaling is impaired, as in Fsp1-Cre: Rela flox/flox mice. In these animals, NFκB signaling is blocked in the Fsp1+fibroblasts, associated with a dramatic reduction in transdifferentiated fibroblasts (i.e. YFP+CD144+ cells), and impaired perfusion (Meng. S., et al., Circulation, 2020. 142 (17): p. 1647-1662). […] Cluster 8 produced angiogenic cytokines, whereas Cluster 5 expressed genes associated with EC identity (i.e CD144). But only Cluster 5 could generate EC-like networks in Matrigel whereas other fibroblasts, including Cluster 8 fibroblasts, formed nodal structures typical of fibroblasts in Matrigel. The data support the idea that transdifferentiation may occur in vivo with tissue ischemia, and is dependent on inflammatory signaling. This model can be used to study the contribution of O-GlcNAcylation in transdifferentiation and limb ischemia recovery in vivo. A similar lineage tracing approach can be used with tamoxifen-inducible Col1A2-Cre/ERT: R26R-tdTomato mouse strain to study the contribution of O-GlcNAcylation in transdifferentiation and limb ischemia recovery in vivo.\nTo determine if O-GlcNAcylation enhances revascularization through transdifferentiation, fibroblasts lineage tracing Fsp1-Cre: R26R-EYFP mice strain were utilized where it was previously observed the in situ transdifferentiation phenomenon (FIG. 20A). In this model, all the fibroblasts expressing Fsp1 (fibroblast-specific protein1) are marked with YFP. With this model, a significant increase in the FSP-expressing cell progeny in the ischemic limb was identified compared with the sham-operated limb 3 days after the femoral artery ligation was perform (FIG. 20A) and compare the YFP+ cells over the different time points (FIG. 20A). The percentage of the YFP+CD31+CD11b-cell population which is considered the transdifferentiation population was analyzed further. […] To determine the role of the O-GlcNAcylation on the transdifferentiation, the Fsp1-Cre: R26R-EYFP mice that are undergoing vascular recovery with OSMI were treated, and the transdifferentiation population in the limb muscle tissue 7 days post-surgery was analyzed.", "data": [{"smiles": "CCOC(=O)CN(Cc1cccs1)C(=O)[C@H](NS(=O)(=O)c1cc2ccc(=O)[nH]c2cc1Cl)c1ccccc1OC", "note": "[OSMI]", "values": [{"measurement": "transdifferentiation population (YFP+CD31+CD11b-) in limb muscle tissue", "value": "significantly reduced"}]}]}
